ChEMBL document CHEMBL1765075, “Discovery and structure-activity relationship of 3-aminopyrid-2-ones as potent and selective interleukin-2 inducible T-cell kinase (Itk) inhibitors” (J Med Chem, 2011)
Converted amounts (≈) assume the structure as drawn.

Tests used:
[1] = molecular target: Serine/threonine-protein kinase Chk1 (Homo sapiens, UniProt O14757); test: Inhibition of CHEK1
[2] = molecular target: RAF proto-oncogene serine/threonine-protein kinase (Homo sapiens, UniProt P04049); test: Inhibition of C-RAF
[3] = molecular target: Tyrosine-protein kinase Fes/Fps (Homo sapiens, UniProt P07332); test: Inhibition of FES
[4] = molecular target: Ribosomal protein S6 kinase beta-1 (Homo sapiens, UniProt P23443); test: Inhibition of P70S6K1
[5] = molecular target: Tyrosine-protein kinase Lyn (Homo sapiens, UniProt P07948); test: Inhibition of LYNA
[6] = molecular target: Serine/threonine-protein kinase PLK3 (Homo sapiens, UniProt Q9H4B4); test: Inhibition of PLK3
[7] = molecular target: Mast/stem cell growth factor receptor Kit (Homo sapiens, UniProt P10721); test: Inhibition of c-Kit after 45 mins by radiometric phosphate incorporation assay
[8] = molecular target: Inhibitor of nuclear factor kappa-B kinase subunit alpha (Homo sapiens, UniProt O15111); test: Inhibition of IKKalpha
[9] = molecular target: Tyrosine-protein kinase ABL1 (Homo sapiens, UniProt P00519); test: Inhibition of ABL
[10] = molecular target: Death-associated protein kinase 3 (Homo sapiens, UniProt O43293); test: Inhibition of ZIPK
[11] = Octanol-phosphate buffer partition coefficient, log D of the compound at pH 7.4 by HPLC analysis; format: physicochemical
[12] = molecular target: Serine/threonine-protein kinase Sgk1 (Homo sapiens, UniProt O00141); test: Inhibition of SGK1
[13] = Solubility of the compound in phosphate buffer at pH 7.4 by high throughput shake flask assay; format: physicochemical
[14] = molecular target: Serine/threonine-protein kinase Nek1 (Homo sapiens, UniProt Q96PY6); test: Inhibition of NEK1
[15] = Inhibition of PDK
[16] = molecular target: Ceramide kinase (Homo sapiens, UniProt Q8TCT0); test: Inhibition of CERK
[17] = Permeability across apical to basolateral side of human Caco2 cells after 120 mins by LC-MS/MS analysis; format: ADME, cell-based; details: Caco-2, read-out: permeability
[18] = molecular target: Mitogen-activated protein kinase 8 (Homo sapiens, UniProt P45983); test: Inhibition of JNK1
[19] = molecular target: Serine/threonine-protein kinase 3 (Homo sapiens, UniProt Q13188); test: Inhibition of MST2
[20] = molecular target: Serine/threonine-protein kinase TBK1 (Homo sapiens, UniProt Q9UHD2); test: Inhibition of TBK1
[21] = molecular target: RAC-alpha serine/threonine-protein kinase (Homo sapiens, UniProt P31749); test: Inhibition of AKT1
[22] = molecular target: Ribosomal protein S6 kinase alpha-5 (Homo sapiens, UniProt O75582); test: Inhibition of MSK1
[23] = molecular target: Mitogen-activated protein kinase 14 (Homo sapiens, UniProt Q16539); test: Inhibition of P38alpha
[24] = molecular target: Dual specificity mitogen-activated protein kinase kinase 6 (Homo sapiens, UniProt P52564); test: Inhibition of MKK6
[25] = molecular target: T1, Tyrosine-protein kinase ITK/TSK (Homo sapiens, UniProt Q08881); test: Inhibition of Itk after 40 mins by radiometric phosphate incorporation assay
T1 sequence (Q08881 whole entry): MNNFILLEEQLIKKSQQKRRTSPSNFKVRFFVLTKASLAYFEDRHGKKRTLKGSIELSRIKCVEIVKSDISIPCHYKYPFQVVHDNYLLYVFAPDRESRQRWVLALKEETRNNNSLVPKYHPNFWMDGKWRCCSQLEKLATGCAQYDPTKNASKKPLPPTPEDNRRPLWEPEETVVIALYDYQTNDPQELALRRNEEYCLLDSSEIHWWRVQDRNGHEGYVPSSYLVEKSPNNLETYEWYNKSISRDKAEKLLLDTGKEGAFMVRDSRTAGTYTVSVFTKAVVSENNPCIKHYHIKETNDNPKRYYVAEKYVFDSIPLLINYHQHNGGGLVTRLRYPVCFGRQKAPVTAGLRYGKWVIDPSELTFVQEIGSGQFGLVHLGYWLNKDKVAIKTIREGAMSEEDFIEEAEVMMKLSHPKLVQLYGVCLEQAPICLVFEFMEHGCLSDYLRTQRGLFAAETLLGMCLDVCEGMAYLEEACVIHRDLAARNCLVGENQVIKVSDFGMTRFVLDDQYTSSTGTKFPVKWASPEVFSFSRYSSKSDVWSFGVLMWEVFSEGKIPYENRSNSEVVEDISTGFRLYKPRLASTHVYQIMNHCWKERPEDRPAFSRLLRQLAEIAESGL

[26] = molecular target: Receptor tyrosine-protein kinase erbB-4 (Homo sapiens, UniProt Q15303); test: Inhibition of ERBB4
[27] = molecular target: Tyrosine-protein kinase Fer (Homo sapiens, UniProt P16591); test: Inhibition of FER
[28] = molecular target: Insulin-like growth factor 1 receptor (Homo sapiens, UniProt P08069); test: Inhibition of IGF1R
[29] = molecular target: Mitogen-activated protein kinase 11 (Homo sapiens, UniProt Q15759); test: Inhibition of P38beta
[30] = molecular target: Mitogen-activated protein kinase 3 (Homo sapiens, UniProt P27361); test: Inhibition of ERK1
[31] = molecular target: Focal adhesion kinase 1 (Homo sapiens, UniProt Q05397); test: Inhibition of FAK
[32] = molecular target: Platelet-derived growth factor receptor alpha (Homo sapiens, UniProt P16234); test: Inhibition of PDGFRalpha
[33] = molecular target: Indoleamine 2,3-dioxygenase 1 (Homo sapiens, UniProt P14902); test: Inhibition of IDO1
[34] = Inhibition of AMPK
[35] = molecular target: Serine/threonine-protein kinase pim-1 (Homo sapiens, UniProt P11309); test: Inhibition of PIM1
[36] = molecular target: Proto-oncogene tyrosine-protein kinase ROS (Homo sapiens, UniProt P08922); test: Inhibition of ROS

Sequence of Mitogen-activated protein kinase 3 (P27361 whole entry): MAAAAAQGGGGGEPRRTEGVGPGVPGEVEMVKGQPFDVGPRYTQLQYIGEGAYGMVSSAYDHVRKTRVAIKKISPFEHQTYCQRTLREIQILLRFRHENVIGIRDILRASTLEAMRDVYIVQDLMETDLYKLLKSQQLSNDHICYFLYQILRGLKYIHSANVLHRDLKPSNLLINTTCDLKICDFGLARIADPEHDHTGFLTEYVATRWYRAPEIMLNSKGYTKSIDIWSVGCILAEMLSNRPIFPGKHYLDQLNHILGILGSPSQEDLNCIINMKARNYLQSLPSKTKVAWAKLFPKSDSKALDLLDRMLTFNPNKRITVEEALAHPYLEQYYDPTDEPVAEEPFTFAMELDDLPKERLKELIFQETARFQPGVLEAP
Sequence of Serine/threonine-protein kinase Nek1 (Q96PY6 whole entry): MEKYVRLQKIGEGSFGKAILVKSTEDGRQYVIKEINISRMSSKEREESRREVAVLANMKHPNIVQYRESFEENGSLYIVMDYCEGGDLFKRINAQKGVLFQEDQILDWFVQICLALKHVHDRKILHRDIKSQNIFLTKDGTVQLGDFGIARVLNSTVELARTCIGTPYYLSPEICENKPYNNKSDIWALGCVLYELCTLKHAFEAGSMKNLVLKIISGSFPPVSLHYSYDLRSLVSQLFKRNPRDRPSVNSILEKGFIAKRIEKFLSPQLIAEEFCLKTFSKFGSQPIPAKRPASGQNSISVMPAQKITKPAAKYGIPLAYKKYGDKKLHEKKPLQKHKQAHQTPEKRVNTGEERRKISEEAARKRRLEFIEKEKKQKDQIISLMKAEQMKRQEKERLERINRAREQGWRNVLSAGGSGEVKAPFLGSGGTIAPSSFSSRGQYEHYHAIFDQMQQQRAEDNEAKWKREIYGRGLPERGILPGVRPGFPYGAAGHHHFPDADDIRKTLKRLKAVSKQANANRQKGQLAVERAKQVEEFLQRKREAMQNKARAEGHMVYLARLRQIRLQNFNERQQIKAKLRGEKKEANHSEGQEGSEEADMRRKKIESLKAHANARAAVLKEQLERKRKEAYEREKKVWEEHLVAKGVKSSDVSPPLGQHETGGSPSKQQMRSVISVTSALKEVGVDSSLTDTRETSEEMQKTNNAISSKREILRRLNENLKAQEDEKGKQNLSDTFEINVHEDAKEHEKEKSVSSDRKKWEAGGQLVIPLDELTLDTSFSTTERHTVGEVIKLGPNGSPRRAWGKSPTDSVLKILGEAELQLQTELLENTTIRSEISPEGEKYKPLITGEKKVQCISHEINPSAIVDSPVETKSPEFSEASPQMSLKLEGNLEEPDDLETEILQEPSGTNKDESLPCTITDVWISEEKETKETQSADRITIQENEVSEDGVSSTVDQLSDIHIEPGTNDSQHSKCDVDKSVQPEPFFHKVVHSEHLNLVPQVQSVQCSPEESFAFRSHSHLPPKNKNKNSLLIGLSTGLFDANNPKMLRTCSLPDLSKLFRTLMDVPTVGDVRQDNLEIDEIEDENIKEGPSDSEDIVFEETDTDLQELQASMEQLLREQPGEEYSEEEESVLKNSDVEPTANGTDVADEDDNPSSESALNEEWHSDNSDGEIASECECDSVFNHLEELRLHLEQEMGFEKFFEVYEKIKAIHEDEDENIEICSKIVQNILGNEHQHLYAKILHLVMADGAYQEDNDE
Sequence of Insulin-like growth factor 1 receptor (P08069 31-736 limits assumed): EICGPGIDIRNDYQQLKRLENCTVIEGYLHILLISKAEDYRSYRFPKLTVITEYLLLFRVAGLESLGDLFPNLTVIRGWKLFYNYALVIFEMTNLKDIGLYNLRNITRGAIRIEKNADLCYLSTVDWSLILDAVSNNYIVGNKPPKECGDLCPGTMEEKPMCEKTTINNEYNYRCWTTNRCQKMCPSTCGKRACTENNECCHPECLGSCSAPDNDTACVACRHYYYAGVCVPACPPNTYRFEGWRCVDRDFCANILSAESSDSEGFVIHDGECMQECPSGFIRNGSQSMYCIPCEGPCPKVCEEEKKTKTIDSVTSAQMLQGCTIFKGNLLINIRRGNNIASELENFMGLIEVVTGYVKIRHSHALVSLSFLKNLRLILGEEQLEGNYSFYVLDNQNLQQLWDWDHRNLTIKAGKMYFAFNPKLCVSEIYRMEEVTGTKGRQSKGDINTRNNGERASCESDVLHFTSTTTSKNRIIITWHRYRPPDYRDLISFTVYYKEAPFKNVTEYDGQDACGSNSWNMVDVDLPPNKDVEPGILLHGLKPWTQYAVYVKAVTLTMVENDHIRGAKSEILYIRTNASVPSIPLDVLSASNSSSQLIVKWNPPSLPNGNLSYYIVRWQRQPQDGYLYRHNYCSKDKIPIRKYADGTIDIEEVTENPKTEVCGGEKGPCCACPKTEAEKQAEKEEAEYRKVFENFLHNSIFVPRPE
Sequence of Insulin-like growth factor 1 receptor (P08069 741-1367 limits assumed): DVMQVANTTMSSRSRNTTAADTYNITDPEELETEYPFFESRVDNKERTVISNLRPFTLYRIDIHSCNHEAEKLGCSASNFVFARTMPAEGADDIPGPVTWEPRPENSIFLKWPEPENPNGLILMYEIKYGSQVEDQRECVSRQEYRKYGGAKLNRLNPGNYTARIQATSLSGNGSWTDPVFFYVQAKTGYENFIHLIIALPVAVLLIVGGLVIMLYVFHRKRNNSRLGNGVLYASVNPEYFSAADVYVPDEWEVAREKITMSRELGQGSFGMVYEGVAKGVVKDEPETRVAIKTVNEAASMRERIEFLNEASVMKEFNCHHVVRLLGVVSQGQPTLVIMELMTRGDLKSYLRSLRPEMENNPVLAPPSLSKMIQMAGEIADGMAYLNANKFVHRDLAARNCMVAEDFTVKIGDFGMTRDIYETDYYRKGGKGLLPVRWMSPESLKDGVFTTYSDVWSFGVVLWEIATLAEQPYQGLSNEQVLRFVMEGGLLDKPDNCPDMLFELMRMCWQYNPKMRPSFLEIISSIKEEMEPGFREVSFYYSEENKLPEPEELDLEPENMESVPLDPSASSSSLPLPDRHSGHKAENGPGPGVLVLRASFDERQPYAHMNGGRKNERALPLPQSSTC
Sequence of Receptor tyrosine-protein kinase erbB-4 (Q15303 whole entry): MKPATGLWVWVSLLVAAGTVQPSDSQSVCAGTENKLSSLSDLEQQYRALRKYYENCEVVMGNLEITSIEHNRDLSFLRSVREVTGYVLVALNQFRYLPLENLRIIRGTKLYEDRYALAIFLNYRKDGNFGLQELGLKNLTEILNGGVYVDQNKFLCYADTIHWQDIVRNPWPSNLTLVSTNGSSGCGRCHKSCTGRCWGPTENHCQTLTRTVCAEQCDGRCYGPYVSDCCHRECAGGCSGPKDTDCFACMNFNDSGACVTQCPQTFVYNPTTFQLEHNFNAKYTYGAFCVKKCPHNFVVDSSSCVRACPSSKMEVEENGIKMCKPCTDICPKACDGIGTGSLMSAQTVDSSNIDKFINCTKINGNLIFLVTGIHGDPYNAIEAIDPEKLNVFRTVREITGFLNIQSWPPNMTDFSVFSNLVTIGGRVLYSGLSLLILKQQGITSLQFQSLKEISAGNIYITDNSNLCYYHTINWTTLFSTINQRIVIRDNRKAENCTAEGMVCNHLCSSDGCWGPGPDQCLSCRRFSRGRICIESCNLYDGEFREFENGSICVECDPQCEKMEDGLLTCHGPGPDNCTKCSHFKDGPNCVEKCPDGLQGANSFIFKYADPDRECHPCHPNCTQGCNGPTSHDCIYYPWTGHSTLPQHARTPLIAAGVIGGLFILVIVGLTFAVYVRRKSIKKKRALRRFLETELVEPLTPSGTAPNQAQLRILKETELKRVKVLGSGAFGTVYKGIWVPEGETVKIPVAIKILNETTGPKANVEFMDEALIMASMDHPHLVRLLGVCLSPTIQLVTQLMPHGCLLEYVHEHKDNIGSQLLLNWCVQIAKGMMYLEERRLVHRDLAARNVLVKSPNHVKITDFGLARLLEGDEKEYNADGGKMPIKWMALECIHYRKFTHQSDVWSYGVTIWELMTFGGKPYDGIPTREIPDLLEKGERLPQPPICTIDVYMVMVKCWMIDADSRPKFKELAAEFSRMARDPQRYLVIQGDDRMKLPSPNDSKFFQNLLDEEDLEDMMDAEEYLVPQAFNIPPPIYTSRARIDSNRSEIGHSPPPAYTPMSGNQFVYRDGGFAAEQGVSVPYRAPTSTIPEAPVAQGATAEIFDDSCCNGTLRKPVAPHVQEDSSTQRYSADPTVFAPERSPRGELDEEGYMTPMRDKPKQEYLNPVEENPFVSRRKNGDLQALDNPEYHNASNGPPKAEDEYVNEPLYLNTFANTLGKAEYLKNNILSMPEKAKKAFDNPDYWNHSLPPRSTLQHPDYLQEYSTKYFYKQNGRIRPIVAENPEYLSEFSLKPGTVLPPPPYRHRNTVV
Sequence of Mitogen-activated protein kinase 8 (P45983 whole entry): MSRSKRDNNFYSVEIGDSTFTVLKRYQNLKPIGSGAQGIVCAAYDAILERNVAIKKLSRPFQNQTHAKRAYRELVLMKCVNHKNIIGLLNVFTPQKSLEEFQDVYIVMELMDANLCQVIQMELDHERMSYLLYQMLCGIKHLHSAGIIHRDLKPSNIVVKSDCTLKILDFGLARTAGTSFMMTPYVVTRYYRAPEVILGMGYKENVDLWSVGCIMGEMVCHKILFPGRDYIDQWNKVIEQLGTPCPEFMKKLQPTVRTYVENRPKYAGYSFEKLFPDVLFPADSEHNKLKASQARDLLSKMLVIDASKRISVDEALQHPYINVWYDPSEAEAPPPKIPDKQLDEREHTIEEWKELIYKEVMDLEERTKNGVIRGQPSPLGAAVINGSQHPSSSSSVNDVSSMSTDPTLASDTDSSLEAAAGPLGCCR
Sequence of Dual specificity mitogen-activated protein kinase kinase 6 (P52564 whole entry): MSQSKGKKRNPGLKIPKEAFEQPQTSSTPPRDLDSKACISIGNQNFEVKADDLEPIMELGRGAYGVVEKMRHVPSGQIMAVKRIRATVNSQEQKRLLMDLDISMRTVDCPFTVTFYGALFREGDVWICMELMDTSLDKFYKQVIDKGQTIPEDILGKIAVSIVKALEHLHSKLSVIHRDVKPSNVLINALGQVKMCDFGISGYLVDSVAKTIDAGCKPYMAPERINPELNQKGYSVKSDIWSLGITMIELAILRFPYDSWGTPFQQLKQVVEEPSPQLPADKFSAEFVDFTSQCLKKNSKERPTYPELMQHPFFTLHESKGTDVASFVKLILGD

- Ki [1]: > 1000 nM
- Ki [2]: > 2000 nM
- Ki [3]: > 1000 nM
- Ki [4]: > 1000 nM
- Ki [5]: > 1000 nM
- Ki [6]: > 1000 nM
- Ki [7]: 200 nM
- Ki [8]: > 1000 nM
- Ki [9]: > 1000 nM
- logD [11]: 2.8
- Ki [12]: > 1000 nM
- solubility thermodynamic [13]: 150 µg/mL (≈ 317 µM)
- Ki [14]: > 1000 nM
- Ki [15]: > 1000 nM
- Ki [16]: > 1000 nM
- Papp A→B at 2 h [17]: 10.8 ×10⁻⁶ cm/s
- Ki [18]: > 1000 nM
- Ki [19]: > 1000 nM
- Ki [20]: > 1000 nM
- Ki [21]: > 1000 nM
- Ki [22]: > 1000 nM
- Ki [23]: > 1000 nM
- Ki [24]: > 1000 nM
- Ki [25]: 7 nM
- Ki [26]: > 1000 nM
- Ki [27]: > 1000 nM
- Ki [28]: > 1000 nM
- Ki [29]: > 1000 nM
- Ki [30]: > 2000 nM
- Ki [31]: > 1000 nM
- Ki [32]: > 1000 nM
- Ki [33]: > 1000 nM
- Ki [34]: > 1000 nM
- Ki [35]: > 1000 nM
- Ki [36]: > 1000 nM
SMILES: CNc1cncc(-c2c[nH]c(=O)c(NC(=O)c3ccc(N4CCC[C@H]4CN4CCCC4)cc3)c2)n1
- Ki [10]: > 1000 nM
